Numbers after ± are expanded uncertainties.
What was measured:
[1] = 101 kPa, Liquid, Vibrating tube method
[2] = xn = mol fraction of the nth substance listed; details: 101 kPa, Liquid, Vibrating tube method

ClCCCl [1,2-dichloroethane]
[1]
Details | mass density [kg/m3]
298.15 K | 1245.59 ± 0.81
308.15 K | 1230.96 ± 0.81
318.15 K | 1216.16 ± 0.81

C[N+](=O)[O-] [nitromethane] + ClC(Cl)C(Cl)Cl
[2], x2 = 0
Details | mass density [kg/m3]
298.15 K | 1130.86 ± 0.93
308.15 K | 1117.24 ± 0.92
318.15 K | 1103.5 ± 0.91

C[N+](=O)[O-] [nitromethane] + ClC(Cl)Cl
mass density [kg/m3], [2]
Details | x2 = 0 | x2 = 0.1197 | x2 = 0.1772 | x2 = 0.3007 | x2 = 0.4009 | x2 = 0.5 | x2 = 0.5978 | x2 = 0.7194 | x2 = 0.8607 | x2 = 0.9562
298.15 K | 1130.86 ± 0.93 | 1189.05 ± 0.97 | 1214.82 ± 0.97 | 1265.96 ± 0.98 | 1303.55 ± 0.99 | 1337.74 ± 1 | 1368.78 ± 1 | 1404.19 ± 1 | 1441.14 ± 1 | 1463.58 ± 1
308.15 K | 1117.24 ± 0.92 | 1174.6 ± 0.96 | 1200 ± 0.96 | 1250.36 ± 0.97 | 1287.37 ± 0.98 | 1321 ± 0.99 | 1351.55 ± 0.99 | 1386.34 ± 0.99 | 1422.65 ± 0.99 | 1444.71 ± 0.99
318.15 K | 1103.5 ± 0.91 | 1160.01 ± 0.95 | 1185.02 ± 0.95 | 1234.59 ± 0.97 | 1271 ± 0.97 | 1304.11 ± 0.98 | 1334.09 ± 0.98 | 1368.25 ± 0.98 | 1403.89 ± 0.98 | 1425.56 ± 0.98

C[N+](=O)[O-] [nitromethane] + ClCCCCCl
[2], x2 = 0
Details | mass density [kg/m3]
298.15 K | 1130.95 ± 0.93
308.15 K | 1117.32 ± 0.92
318.15 K | 1103.57 ± 0.91

ClCCCCl [1,3-dichloropropane] + C[N+](=O)[O-]
mass density [kg/m3], [2]
Details | x1 = 0.0878 | x1 = 0.1939 | x1 = 0.2938 | x1 = 0.3998 | x1 = 0.5028 | x1 = 0.6154 | x1 = 0.7207 | x1 = 0.8326 | x1 = 0.9404 | x1 = 1
298.15 K | 1135.58 ± 0.91 | 1141.34 ± 0.89 | 1146.79 ± 0.87 | 1152.41 ± 0.85 | 1157.65 ± 0.84 | 1163.15 ± 0.83 | 1168.07 ± 0.82 | 1173.04 ± 0.82 | 1177.55 ± 0.81 | 1180.1 ± 0.81
308.15 K | 1122.12 ± 0.9 | 1128.05 ± 0.88 | 1133.64 ± 0.86 | 1139.39 ± 0.85 | 1144.76 ± 0.84 | 1150.38 ± 0.83 | 1155.41 ± 0.82 | 1160.49 ± 0.82 | 1165.1 ± 0.81 | 1167.7 ± 0.81
318.15 K | 1108.53 ± 0.89 | 1114.63 ± 0.88 | 1120.37 ± 0.86 | 1126.26 ± 0.85 | 1131.76 ± 0.84 | 1137.51 ± 0.83 | 1142.65 ± 0.82 | 1147.84 ± 0.82 | 1152.56 ± 0.81 | 1155.21 ± 0.81

CC(Cl)(Cl)Cl [1,1,1-trichloroethane] + C[N+](=O)[O-]
mass density [kg/m3], [2]
Details | x1 = 0.0921 | x1 = 0.1727 | x1 = 0.2614 | x1 = 0.3951 | x1 = 0.4862 | x1 = 0.5904 | x1 = 0.7066 | x1 = 0.8358 | x1 = 0.9012 | x1 = 1
298.15 K | 1161.87 ± 0.94 | 1185.48 ± 0.95 | 1208.35 ± 0.95 | 1238.06 ± 0.95 | 1255.6 ± 0.95 | 1273.47 ± 0.94 | 1291.18 ± 0.94 | 1308.67 ± 0.93 | 1316.72 ± 0.93 | 1328.24 ± 0.93
308.15 K | 1147.77 ± 0.94 | 1170.98 ± 0.94 | 1193.5 ± 0.94 | 1222.71 ± 0.94 | 1239.96 ± 0.94 | 1257.52 ± 0.94 | 1274.93 ± 0.93 | 1292.14 ± 0.93 | 1300.08 ± 0.92 | 1311.45 ± 0.92
318.15 K | 1133.54 ± 0.93 | 1156.35 ± 0.93 | 1178.49 ± 0.93 | 1207.19 ± 0.93 | 1224.13 ± 0.93 | 1241.39 ± 0.93 | 1258.49 ± 0.92 | 1275.42 ± 0.92 | 1283.24 ± 0.92 | 1294.47 ± 0.91

C[N+](=O)[O-] [nitromethane]
[1]
Details | mass density
298.15 K | 1130.9 ± 0.93 kg/m3 [middle of 5 runs]
308.15 K | 1117.28 ± 0.92 kg/m3 [middle of 6 runs]
318.15 K | 1103.53 ± 0.91 kg/m3 [middle of 6 runs]

C[N+](=O)[O-] [nitromethane] + CC(Cl)(Cl)Cl
[2], x2 = 0
Details | mass density [kg/m3]
298.15 K | 1130.91 ± 0.93
308.15 K | 1117.29 ± 0.92
318.15 K | 1103.55 ± 0.91

C[N+](=O)[O-] [nitromethane] + CCCCCCl
[2], x2 = 0
Details | mass density [kg/m3]
298.15 K | 1130.86 ± 0.93
308.15 K | 1117.23 ± 0.92
318.15 K | 1103.48 ± 0.91

ClC(Cl)C(Cl)Cl [1,1,2,2-tetrachloroethane]
[1]
Details | mass density [kg/m3]
298.15 K | 1588.23 ± 2.3
308.15 K | 1572.66 ± 2.2
318.15 K | 1557.04 ± 2.2

ClC(Cl)C(Cl)Cl [1,1,2,2-tetrachloroethane] + C[N+](=O)[O-]
mass density [kg/m3], [2]
Details | x1 = 0.0711 | x1 = 0.1888 | x1 = 0.2563 | x1 = 0.3464 | x1 = 0.4341 | x1 = 0.5431 | x1 = 0.6654 | x1 = 0.8211 | x1 = 0.9285 | x1 = 1
298.15 K | 1191.08 ± 1 | 1275.68 ± 1.1 | 1318 ± 1.2 | 1366.65 ± 1.3 | 1408.57 ± 1.4 | 1454.03 ± 1.5 | 1497.84 ± 1.7 | 1544.6 ± 1.9 | 1571.92 ± 2.1 | 1588.23 ± 2.3
308.15 K | 1177.12 ± 1 | 1261.26 ± 1.1 | 1303.41 ± 1.2 | 1351.85 ± 1.3 | 1393.61 ± 1.4 | 1438.91 ± 1.5 | 1482.56 ± 1.7 | 1529.17 ± 1.9 | 1556.4 ± 2.1 | 1572.66 ± 2.2
318.15 K | 1163.03 ± 1 | 1246.76 ± 1.1 | 1288.69 ± 1.1 | 1336.94 ± 1.2 | 1378.54 ± 1.3 | 1423.68 ± 1.5 | 1467.2 ± 1.6 | 1513.67 ± 1.9 | 1540.82 ± 2.1 | 1557.04 ± 2.2

CCCCCl [1-chlorobutane] + C[N+](=O)[O-]
[2], x1 = 1
Details | mass density [kg/m3]
298.15 K | 881.17 ± 0.81
308.15 K | 870 ± 0.81
318.15 K | 858.67 ± 0.81

Reference: the NIST ThermoML archive (doi:10.1021/je3013342)
